The text below walks through data of publication PMC9134006 (RSC Advances, 2021).

For one assay, the target named is hAChE (human AChE) (Homo sapiens, UniProt P22303). Nature of the assay: Inhibition of hAChE. The following applies: for remaining activity at 10 µM: read-out: hAChE RA (residual activity) at 10 μM; for remaining activity at 100 µM: read-out: hAChE RA (residual activity) at 100 μM. It is filed as biochemical.
In the next assay the target is hBChE (human BChE) (Homo sapiens, UniProt P06276). The assay can be described thus: Inhibition of hBChE. The class given is biochemical. The following applies: for remaining activity at 10 µM: read-out: hBChE RA (residual activity) at 10 μM; for remaining activity at 100 µM: read-out: hBChE RA (residual activity) at 100 μM.
Sequence of hBChE (human BChE) (P06276 29-602): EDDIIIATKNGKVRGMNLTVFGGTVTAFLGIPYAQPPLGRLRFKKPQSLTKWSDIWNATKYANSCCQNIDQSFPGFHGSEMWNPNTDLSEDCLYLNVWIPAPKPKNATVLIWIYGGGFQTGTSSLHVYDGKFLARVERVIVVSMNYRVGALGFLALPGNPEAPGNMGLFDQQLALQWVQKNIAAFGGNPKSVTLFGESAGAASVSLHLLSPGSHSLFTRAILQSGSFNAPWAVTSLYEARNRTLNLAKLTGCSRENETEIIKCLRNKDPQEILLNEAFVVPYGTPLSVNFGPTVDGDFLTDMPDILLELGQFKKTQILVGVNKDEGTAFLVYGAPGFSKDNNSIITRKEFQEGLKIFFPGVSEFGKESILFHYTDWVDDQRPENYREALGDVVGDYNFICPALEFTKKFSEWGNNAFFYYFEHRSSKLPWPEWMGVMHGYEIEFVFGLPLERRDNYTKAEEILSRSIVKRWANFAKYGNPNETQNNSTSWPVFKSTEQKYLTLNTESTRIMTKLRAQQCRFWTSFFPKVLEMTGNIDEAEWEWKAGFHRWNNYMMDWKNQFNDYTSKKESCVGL
The target of a further assay is T1, hMAO-B (human MAO-B) (Homo sapiens, UniProt P27338).
T1 sequence (P27338 1-520): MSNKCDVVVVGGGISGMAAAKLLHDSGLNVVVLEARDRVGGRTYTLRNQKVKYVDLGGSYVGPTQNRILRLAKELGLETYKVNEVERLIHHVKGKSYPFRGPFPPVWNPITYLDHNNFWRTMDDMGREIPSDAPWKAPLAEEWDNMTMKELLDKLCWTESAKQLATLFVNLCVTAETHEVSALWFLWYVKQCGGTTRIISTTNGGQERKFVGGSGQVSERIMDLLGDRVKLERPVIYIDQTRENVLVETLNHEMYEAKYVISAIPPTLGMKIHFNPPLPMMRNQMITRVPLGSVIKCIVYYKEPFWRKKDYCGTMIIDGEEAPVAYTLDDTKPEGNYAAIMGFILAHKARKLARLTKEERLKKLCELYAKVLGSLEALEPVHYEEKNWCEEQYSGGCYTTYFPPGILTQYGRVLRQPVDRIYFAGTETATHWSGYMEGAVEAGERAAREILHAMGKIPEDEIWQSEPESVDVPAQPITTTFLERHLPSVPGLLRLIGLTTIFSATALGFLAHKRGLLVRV
Nature of the assay: Inhibition of hMAO-B. The class given is biochemical. To be noted: for remaining activity at 10 µM: read-out: hMAO-B RA (residual activity) at 10 μM; for remaining activity at 100 µM: read-out: hMAO-B RA (residual activity) at 100 μM; for inhibition of hMAO-B (in words): versus hAChE, hBChE, hMAO-A.

A further assay addresses T2, hMAO-A (human MAO-A) (Homo sapiens, UniProt P21397).
T2 sequence (P21397 1-527): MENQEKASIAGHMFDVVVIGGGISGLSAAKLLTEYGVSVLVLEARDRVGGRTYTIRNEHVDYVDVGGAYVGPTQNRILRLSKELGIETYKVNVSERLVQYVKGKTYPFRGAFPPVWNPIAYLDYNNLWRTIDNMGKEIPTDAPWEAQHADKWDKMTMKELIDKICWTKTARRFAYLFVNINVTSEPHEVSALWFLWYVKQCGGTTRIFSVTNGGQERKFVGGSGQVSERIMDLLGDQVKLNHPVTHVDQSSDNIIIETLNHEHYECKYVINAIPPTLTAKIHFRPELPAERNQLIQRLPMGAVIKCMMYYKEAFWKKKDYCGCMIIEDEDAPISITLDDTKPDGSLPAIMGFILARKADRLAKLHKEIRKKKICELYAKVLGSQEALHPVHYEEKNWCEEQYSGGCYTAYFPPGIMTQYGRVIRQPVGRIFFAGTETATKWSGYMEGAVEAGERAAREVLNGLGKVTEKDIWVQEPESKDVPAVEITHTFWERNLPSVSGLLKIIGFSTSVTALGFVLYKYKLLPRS
The assay can be described thus: Inhibition of hMAO-A. The following applies: for remaining activity at 10 µM: read-out: hMAO-A RA (residual activity) at 10 μM; for remaining activity at 100 µM: read-out: hMAO-A RA (residual activity) at 100 μM.

The conditions of assay [1]: ref 29b,37; cited from earlier work.

Sequence of hAChE (human AChE) (P22303 32-614): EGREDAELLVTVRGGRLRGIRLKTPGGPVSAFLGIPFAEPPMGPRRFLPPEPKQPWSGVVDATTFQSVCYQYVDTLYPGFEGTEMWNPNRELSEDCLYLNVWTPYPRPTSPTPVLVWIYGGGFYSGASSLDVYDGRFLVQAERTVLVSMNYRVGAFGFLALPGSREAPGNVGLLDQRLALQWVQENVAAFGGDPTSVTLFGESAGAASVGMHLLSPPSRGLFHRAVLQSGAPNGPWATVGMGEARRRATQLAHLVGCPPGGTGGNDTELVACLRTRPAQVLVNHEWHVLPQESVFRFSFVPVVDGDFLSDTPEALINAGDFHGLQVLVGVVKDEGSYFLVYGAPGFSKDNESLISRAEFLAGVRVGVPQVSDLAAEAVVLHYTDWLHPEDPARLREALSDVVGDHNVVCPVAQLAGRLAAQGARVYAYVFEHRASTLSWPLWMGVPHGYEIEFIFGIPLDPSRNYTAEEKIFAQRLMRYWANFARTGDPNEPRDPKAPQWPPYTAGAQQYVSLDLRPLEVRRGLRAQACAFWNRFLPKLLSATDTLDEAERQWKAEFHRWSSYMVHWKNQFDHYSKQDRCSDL

For `COc1ccc(-c2cnn3c(C(F)(F)F)cc(=O)[nH]c23)cc1` [Compound 5a, 3-(4-Methoxyphenyl)-7-(trifluoromethyl)pyrazolo[1,5-a]pyrimidin-5(4H)-one], at hAChE (human AChE), the remaining activity at 10 µM was determined as 93% and the remaining activity at 100 µM was found to be 86%. At hBChE (human BChE), the remaining activity at 10 µM was determined as 90% and the remaining activity at 100 µM worked out at 103%. Moreover, on hMAO-B (human MAO-B), inhibition was half-maximal at 35 µM (IC50), the remaining activity at 10 µM was found to be 73%, the remaining activity at 100 µM is 26% and the “inhibition of hMAO-B (in words)” value is recorded as “selectively inhibit hMAO-B in the micromolar range”. Besides, on hMAO-A (human MAO-A), the remaining activity at 10 µM was found to be 95% and the remaining activity at 100 µM stood at 99%.
In the case of `COc1cccc(-c2cnn3c(C(F)(F)F)cc(=O)[nH]c23)c1` [Compound 5f, 3-(3-Methoxyphenyl)-7-(trifluoromethyl)pyrazolo[1,5-a]pyrimidin-5(4H)-one], on hAChE (human AChE), the remaining activity at 10 µM is 91% and the remaining activity at 100 µM came to 88%. Also, at hBChE (human BChE), the remaining activity at 10 µM turned out to be 97% and the remaining activity at 100 µM was determined as 95%. In addition, at hMAO-B (human MAO-B), half-maximal inhibition (IC50) required 101 µM, the remaining activity at 10 µM was determined as 80%, the remaining activity at 100 µM was found to be 40% and the “inhibition of hMAO-B (in words)” value is on record as “selectively inhibit hMAO-B in the micromolar range”. At hMAO-A (human MAO-A), the remaining activity at 10 µM was found to be 92% and the remaining activity at 100 µM turned out to be 97%.
Regarding `O=c1cc(C(F)(F)F)n2ncc(-c3ccc4c(c3)OCCO4)c2[nH]1` [Compound 5h, 3-(2,3-Dihydrobenzo[b][1,4]dioxin-6-yl)-7-(trifluoromethyl)pyrazolo[1,5-a]pyrimidin-5(4H)-one], on hAChE (human AChE), the remaining activity at 10 µM was found to be 91% and the remaining activity at 100 µM was 86%. Besides, on hBChE (human BChE), the remaining activity at 10 µM came out at 94% and the remaining activity at 100 µM was 95%. Besides, on hMAO-B (human MAO-B), the IC50 was 5.36 µM, the remaining activity at 10 µM came to 36%, the remaining activity at 100 µM turned out to be 8% and the “inhibition of hMAO-B (in words)” value is reported as “selectively inhibit hMAO-B in the micromolar range”. For the same compound, at hMAO-A (human MAO-A), the remaining activity at 10 µM worked out at 110% and the remaining activity at 100 µM was found to be 95%.
For `CC(=O)c1ccc(-c2cnn3c(C(F)(F)F)cc(=O)[nH]c23)cc1` [Compound 5i, 3-(4-Acetylphenyl)-7-(trifluoromethyl)pyrazolo[1,5-a]pyrimidin-5(4H)-one], on hAChE (human AChE), the remaining activity at 10 µM was determined as 90% and the remaining activity at 100 µM amounted to 91%. In addition, at hBChE (human BChE), the remaining activity at 10 µM was found to be 91% and the remaining activity at 100 µM was determined as 99%. Further, on hMAO-B (human MAO-B), the IC50 came to 26.2 µM, the remaining activity at 10 µM turned out to be 75%, the remaining activity at 100 µM was 21% and the “inhibition of hMAO-B (in words)” value is listed as “selectively inhibit hMAO-B in the micromolar range”. On hMAO-A (human MAO-A), the remaining activity at 10 µM is 100% and the remaining activity at 100 µM came to 98%.
With `FC(F)(F)c1cc(-c2ccc(Br)cc2)nc2c(-c3ccccc3)cnn12` [Compound 11h, 5-(4-Bromophenyl)-3-phenyl-7-(trifluoromethyl)pyrazolo[1,5-a]pyrimidine], the anti-inflammatory activity in assay [1] is 83.4%.
For `COc1ccc2c(c1)c(CC(=O)O)c(C)n2C(=O)c1ccc(Cl)cc1` [Indomethacin, reference compound], the anti-inflammatory activity in assay [1] is listed as 84.2%.
